Assays:
Format in all cases: biochemical
PDE1A = PDE1A (Homo sapiens (Human), UniProt P54750); test: PDE1 inhibition assay, PDE1A; conditions: for IC50: 15 nM tritium labelled cAMP
Procedure: (§1) Reactions were initiated by addition of the cyclic nucleotide substrate, and reactions were allowed to proceed for 1 h at room temperature before being terminated through mixing with 20 μL (0.2 mg) yttrium silicate SPA beads (PerkinElmer).

PDE9 = PDE9 (Homo sapiens (Human), UniProt O76083); test: PDE9 inhibition assay
PDE9, sequence (O76083 whole entry): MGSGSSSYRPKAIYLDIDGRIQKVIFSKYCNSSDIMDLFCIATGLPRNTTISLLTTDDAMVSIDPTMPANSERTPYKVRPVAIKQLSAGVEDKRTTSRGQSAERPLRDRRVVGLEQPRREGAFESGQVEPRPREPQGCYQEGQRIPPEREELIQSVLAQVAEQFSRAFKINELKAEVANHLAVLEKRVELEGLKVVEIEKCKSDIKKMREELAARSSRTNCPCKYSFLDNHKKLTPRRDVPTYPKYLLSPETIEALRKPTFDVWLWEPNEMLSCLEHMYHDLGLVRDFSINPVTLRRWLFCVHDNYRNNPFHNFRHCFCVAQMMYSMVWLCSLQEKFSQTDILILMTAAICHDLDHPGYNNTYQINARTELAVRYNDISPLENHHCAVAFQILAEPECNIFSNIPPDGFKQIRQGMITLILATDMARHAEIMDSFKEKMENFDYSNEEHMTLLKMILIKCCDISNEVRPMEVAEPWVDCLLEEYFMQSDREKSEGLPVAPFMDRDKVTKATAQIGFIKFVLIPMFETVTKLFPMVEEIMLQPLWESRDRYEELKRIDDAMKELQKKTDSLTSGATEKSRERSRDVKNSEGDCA
Procedure: A PDE9 assay may for example, be performed as follows: The assay is performed in 60 μL samples containing a fixed amount of the relevant PDE enzyme (sufficient to convert 20-25% of the cyclic nucleotide substrate), a buffer (50 mM HEPES7.6; 10 mM MgCl2; 0.02% Tween20), 0.1 mg/ml BSA, 225 pCi of ^3H-labelled cyclic nucleotide substrate, tritium labeled cAMP to a final concentration of 5 nM and varying amounts of inhibitors. Reactions are initiated by addition of the cyclic nucleotide substrate, and reactions are allowed to proceed for one hr at room temperature before being terminated through mixing with 15 μL 8 mg/mL yttrium silicate SPA beads (Amersham). The beads are allowed to settle for one hr in the dark before the plates are counted in a Wallac 1450 Microbeta counter.
In the context of the present invention the assay was performed in 60 μL assay buffer (50 mM HEPES pH 7.6; 10 mM MgCl2; 0.02% Tween20) containing enough PDE9 to convert 20-25% of 10 nM ^3H-cAMP and varying amounts of inhibitors. Following a 1 hr incubation the reactions were terminated by addition of 15 μL 8 mg/mL yttrium silicate SPA beads (Amersham). The beads were allowed to settle for one hr in the dark before the plates were counted in a Wallac 1450 Microbeta counter.

PDE1C = PDE1C (Homo sapiens (Human), UniProt Q14123); test: PDE1 inhibition assay, PDE1C; conditions: for IC50: 15 nM tritium labelled cAMP; for inhibition at 1 µM: read-out: PDE1C, % inhibition (at 1 μM)
PDE1C, sequence (Q14123 whole entry): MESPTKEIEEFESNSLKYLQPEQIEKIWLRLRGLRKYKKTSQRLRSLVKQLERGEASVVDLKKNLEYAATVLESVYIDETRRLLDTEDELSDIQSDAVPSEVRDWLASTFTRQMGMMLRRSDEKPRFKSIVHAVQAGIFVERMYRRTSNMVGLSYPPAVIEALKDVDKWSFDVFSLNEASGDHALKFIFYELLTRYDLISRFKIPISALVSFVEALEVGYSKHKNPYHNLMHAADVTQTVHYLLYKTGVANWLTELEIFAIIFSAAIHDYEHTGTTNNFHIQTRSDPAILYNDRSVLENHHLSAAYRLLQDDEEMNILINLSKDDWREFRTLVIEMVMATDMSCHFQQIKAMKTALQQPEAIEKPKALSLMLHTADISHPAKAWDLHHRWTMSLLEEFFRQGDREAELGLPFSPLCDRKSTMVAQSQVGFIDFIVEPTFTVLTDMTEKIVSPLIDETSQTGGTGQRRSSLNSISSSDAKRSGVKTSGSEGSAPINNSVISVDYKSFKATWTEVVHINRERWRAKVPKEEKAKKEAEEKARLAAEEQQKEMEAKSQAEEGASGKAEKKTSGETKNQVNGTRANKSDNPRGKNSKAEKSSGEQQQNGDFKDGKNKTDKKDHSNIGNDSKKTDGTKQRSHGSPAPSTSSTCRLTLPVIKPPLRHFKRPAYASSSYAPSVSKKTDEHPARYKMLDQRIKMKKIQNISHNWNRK
Procedure: as §1, with “(PerkinElmer). The beads were allowed to settle for 1 h in the dark before the plates were counted in a Wallac 1450 Microbeta counter.” for “(PerkinElmer).”

PDE1B = PDE1B (Homo sapiens (Human), UniProt Q01064); test: PDE1 inhibition assay, PDE1B; conditions: for IC50: 15 nM tritium labelled cAMP; for inhibition at 1 µM: read-out: PDE1B, % inhibition (at 1 μM)
PDE1B, sequence (Q01064 whole entry): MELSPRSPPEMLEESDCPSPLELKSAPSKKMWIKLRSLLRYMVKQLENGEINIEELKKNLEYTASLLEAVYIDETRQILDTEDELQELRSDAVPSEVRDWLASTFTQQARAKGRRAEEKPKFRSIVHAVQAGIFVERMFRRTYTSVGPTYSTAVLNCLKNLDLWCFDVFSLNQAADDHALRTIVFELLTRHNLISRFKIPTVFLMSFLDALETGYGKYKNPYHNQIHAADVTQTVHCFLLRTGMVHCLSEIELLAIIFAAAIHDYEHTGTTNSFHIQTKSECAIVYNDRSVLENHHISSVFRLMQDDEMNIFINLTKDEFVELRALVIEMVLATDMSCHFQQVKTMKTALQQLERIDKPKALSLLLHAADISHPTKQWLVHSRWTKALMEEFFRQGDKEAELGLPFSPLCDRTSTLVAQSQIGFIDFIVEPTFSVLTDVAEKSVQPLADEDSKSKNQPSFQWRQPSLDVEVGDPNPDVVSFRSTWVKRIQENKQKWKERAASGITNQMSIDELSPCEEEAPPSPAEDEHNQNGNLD
Procedure: as §1, with “(PerkinElmer). The beads were allowed to settle for 1 h in the dark before the plates were counted in a Wallac 1450 Microbeta counter.” for “(PerkinElmer).”

PDE1A, sequence (P54750 whole entry): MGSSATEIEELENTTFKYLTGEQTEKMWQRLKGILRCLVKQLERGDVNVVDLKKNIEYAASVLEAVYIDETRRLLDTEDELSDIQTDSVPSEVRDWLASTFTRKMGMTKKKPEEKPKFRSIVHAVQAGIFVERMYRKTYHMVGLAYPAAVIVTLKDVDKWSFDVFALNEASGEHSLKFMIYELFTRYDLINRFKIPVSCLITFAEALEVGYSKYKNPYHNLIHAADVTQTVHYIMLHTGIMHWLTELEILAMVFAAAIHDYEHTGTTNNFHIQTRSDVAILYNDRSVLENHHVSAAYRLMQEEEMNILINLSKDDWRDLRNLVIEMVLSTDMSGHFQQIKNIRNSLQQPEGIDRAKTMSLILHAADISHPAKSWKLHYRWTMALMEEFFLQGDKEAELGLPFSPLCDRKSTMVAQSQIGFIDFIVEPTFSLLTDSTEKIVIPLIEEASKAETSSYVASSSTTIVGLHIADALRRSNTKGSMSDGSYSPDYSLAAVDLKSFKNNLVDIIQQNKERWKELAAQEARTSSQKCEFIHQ

IC50 (PDE1A) [µM] | inhibition at 10 µM (PDE9) [%] | IC50 (PDE1C) [µM] | IC50 (PDE1B) [µM] | % inhibition of PDE9 at 10 microM (PDE9) [%] | SMILES | other results
0.663 | 13 | 0.072 | 0.737 |  | COC1(c2ncc3c(=O)n(Cc4cccc(F)c4)c(C)cn23)CCOCC1 [Example 28, 7-(3-fluorobenzyl)-3-(4-methoxytetrahydro-2H-pyran-4-yl)-6-methylimidazo[1,5-a]pyrazin-8(7H)-one] | 
 | 36 |  | 1.77 |  | Cc1cn2c(C3CCOCC3)ncc2c(=O)n1C [Example 58, 6,7-dimethyl-3-(tetrahydro-2H-pyran-4-yl)imidazo[1,5-a]pyrazin-8(7H)-one] | inhibition at 10 µM (PDE1A; read-out: PDE1A, % inhibition (at 10 μM)): 58%; inhibition at 10 µM (PDE1C; read-out: PDE1C, % inhibition (at 10 μM)): 44%
 | 25 | 0.29 |  |  | O=c1c2cnc(C3CC3)n2ccn1Cc1cccc(F)c1 [Example 6, 3-Cyclopropyl-7-(3-fluorobenzyl)imidazo[1,5-a]pyrazin-8(7H)-one] | inhibition at 2 µM (PDE1A; read-out: PDE1A, % inhibition (at 2 μM)): 68%; inhibition at 2 µM (PDE1B; read-out: PDE1B, % inhibition (at 2 μM)): 81%
0.018 | 22 | 0.051 | 0.015 |  | Cc1cn2c(C3CCOCC3)ncc2c(=O)n1Cc1ccc(Cl)cc1 [Example 14, 7-(4-Chlorobenzyl)-6-methyl-3-(tetrahydro-2H-pyran-4-yl)imidazo[1,5-a]pyrazin-8(7H)-one] | 
0.809 | 14 |  |  |  | Cc1cn2c(C3CCOCC3)ncc2c(=O)n1Cc1ccc(C#N)cc1 [Example 46, 4-((6-methyl-8-oxo-3-(tetrahydro-2H-pyran-4-yl)imidazo[1,5-a]pyrazin-7(8H)-yl)methyl)benzonitrile] | inhibition at 1 µM (PDE1C): 9%; inhibition at 1 µM (PDE1B): 58%
0.082 |  | 0.008 | 0.018 | 0 | Cc1cn2c([C@H]3C[C@@H]3C)ncc2c(=O)n1Cc1cccc(F)c1 (single isomer, unassigned; isomer 3) [35, isomer 3] | 
0.801 | -12 | 0.3 | 0.79 |  | CCCc1ncc2c(=O)n(Cc3cccc(F)c3)ccn12 [Example 1, 7-(3-Fluorobenzyl)-3-propylimidazo[1,5-a]pyrazin-8(7H)-one] | 
0.014 | 16 | 0.019 | 0.012 |  | COc1ccc(Cn2c(C)cn3c(C4CCOCC4)ncc3c2=O)cc1 [Example 23, 7-(4-Methoxybenzyl)-6-methyl-3-(tetrahydro-2H-pyran-4-yl)imidazo[1,5-a]pyrazin-8(7H)-one] | 
0.416 | -38 | 0.062 | 0.175 |  | COc1cccc(Cn2c(C)cn3c(C4CCOCC4)ncc3c2=O)c1 [Example 20, 7-(3-Methoxybenzyl)-6-methyl-3-(tetrahydro-2H-pyran-4-yl)imidazo[1,5-a]pyrazin-8(7H)-one] | 
0.81 | -13 | 0.423 | 0.221 |  | CCCn1c(C)cn2c(C3CCOCC3)ncc2c1=O [Example 60, 6-methyl-7-propyl-3-(tetrahydro-2H-pyran-4-yl)imidazo[1,5-a]pyrazin-8(7H)-one] | 
 |  | 0.345 |  | −2 | Cc1cn2c(C3C[C@@H]3F)ncc2c(=O)n1Cc1cccc(F)c1 (single isomer, unassigned; isomer 1) [37, isomer 1] | 
 |  | 0.055 |  | 13 | Cc1cn2c(C3C[C@@H]3F)ncc2c(=O)n1Cc1cccc(F)c1 (single isomer, unassigned; isomer 2) [37, isomer 2] | 
0.048 |  | 0.051 | 0.038 |  | COc1ccc(Cn2c(C)cn3c(N4CCOC[C@@H]4C)ncc3c2=O)cc1 [Example 96, (S)-7-(4-methoxybenzyl)-6-methyl-3-(3-methylmorpholino)imidazo[1,5-a]pyrazin-8(7H)-one] | 
0.013 |  | 0.02 | 0.007 |  | COc1ccc(Cn2c(C)cn3c(C(C)C)ncc3c2=O)cc1 [Example 77, 3-isopropyl-7-(4-methoxybenzyl)-6-methylimidazo[1,5-a]pyrazin-8(7H)-one] | 
0.282 |  |  | 0.107 | 11 | Cc1cn2c([C@H]3CCO[C@@H]3C)ncc2c(=O)n1Cc1cccc(F)c1 (single isomer, unassigned; isomer 2) [36, isomer 2] | 
0.152 |  |  | 0.059 | 3 | Cc1cn2c([C@@H]3CCO[C@@H]3C)ncc2c(=O)n1Cc1cccc(F)c1 (single isomer, unassigned; isomer 1) [36, isomer 1] | 
0.077 |  |  | 0.021 | −10 | Cc1cn2c([C@@H]3CCO[C@H]3C)ncc2c(=O)n1Cc1cccc(F)c1 (single isomer, unassigned; isomer 3) [36, isomer 3] | 
 | 10 |  |  |  | COc1ccc(Cn2c(C)cn3c(C(C)(C)F)ncc3c2=O)cc1 [Example 87, 3-(2-fluoropropan-2-yl)-7-(4-methoxybenzyl)-6-methylimidazo[1,5-a]pyrazin-8(7H)-one] | 

More lines, now with the values behind:

SMILES | IC50 (PDE1A) [µM] | inhibition at 10 µM (PDE9) [%] | IC50 (PDE1C) [µM] | IC50 (PDE1B) [µM] | % inhibition of PDE9 at 10 microM (PDE9) [%] | other results
CCCc1ncc2c(=O)n(Cc3ccc(OC)cc3)c(C)cn12 [Example 56, 7-(4-methoxybenzyl)-6-methyl-3-propylimidazo[1,5-a]pyrazin-8(7H)-one] | 0.065 | 7 | 0.043 | 0.021 |  | 
Cc1cccc(Cn2c(C)cn3c(C4CCOCC4)ncc3c2=O)c1 [Example 25, 6-Methyl-7-(3-methylbenzyl)-3-(tetrahydro-2H-pyran-4-yl)imidazo[1,5-a]pyrazin-8(7H)-one] | 0.063 | -42 | 0.009 | 0.057 |  | 
COc1ccc(Cn2c(C)cn3c(N4CCOCC4)ncc3c2=O)cc1 [Example 93, 3-(morpholino)-7-(4-methoxybenzyl)-6-methylimidazo[1,5-a]pyrazin-8(7H)-one] | 0.096 | 23 | 0.099 | 0.052 |  | 
O=c1c2cnc(C3CCOCC3)n2ccn1CC1CCCCC1 [Example 11, 7-(Cyclohexylmethyl)-3-(tetrahydro-2H-pyran-4-yl)imidazo[1,5-a]pyrazin-8(7H)-one] | 0.113 | 18 | 0.043 | 0.072 |  | 
Cc1cn2c(C3C[C@H]3F)ncc2c(=O)n1Cc1cccc(F)c1 (single isomer, unassigned; isomer 2) [38, isomer 2] |  |  | 0.153 |  | 2 | 
COc1ccc(Cn2c(C)cn3c([C@H]4CCO[C@H]4C)ncc3c2=O)cc1 (single isomer, unassigned; isomer 4) [55, isomer 4] |  |  |  | 0.208 | 1 | 
COc1ccc(Cn2c(C)cn3c([C@@H]4CCO[C@H]4C)ncc3c2=O)cc1 (single isomer, unassigned; isomer 2) [55, isomer 2] |  |  |  | 0.064 | −13 | 
COc1ccc(Cn2c(C)cn3c(C4(C)CCN(C)CC4)ncc3c2=O)cc1 [Example 73, 3-(1,4-dimethylpiperidin-4-yl)-7-(4-methoxybenzyl)-6-methylimidazo[1,5-a]pyrazin-8(7H)-one] | 1.92 |  | 2.45 | 1.45 |  | 
COc1ccc(Cn2c(C)cn3c([C@@H]4CCO[C@@H]4C)ncc3c2=O)cc1 (single isomer, unassigned; isomer 1) [55, isomer 1] |  |  |  | 0.01 | 18 | 
Cc1cn2c(C3C[C@H]3F)ncc2c(=O)n1Cc1cccc(F)c1 (single isomer, unassigned; isomer 1) [38, isomer 1] |  |  |  |  | −1 | 
COc1cc(Cn2c(C)cn3c(C4CCOCC4)ncc3c2=O)ccc1Cl [Example 48, 7-(4-chloro-3-methoxybenzyl)-6-methyl-3-(tetrahydro-2H-pyran-4-yl)imidazo[1,5-a]pyrazin-8(7H)-one] |  | 10 |  |  |  | inhibition at 1 µM (PDE1C): 34%; inhibition at 1 µM (PDE1B): 54%
COc1ccc(Cn2c(C)cn3c(NC4CCOC4)ncc3c2=O)cc1 (stereo not shown) [Example 94, 7-(4-methoxybenzyl)-6-methyl-3-((tetrahydrofuran-3-yl)amino)imidazo[1,5-a]pyrazin-8(7H)-one] | 2.52 | -5 |  |  |  | 
COc1ccc(Cn2c(C)cn3c([C@@H]4CCO[C@H]4C)ncc3c2=O)cc1 (single isomer, unassigned; isomer 3) [55, isomer 3] |  |  |  | 0.003 |  | 

Reference: patent publication US10858362B2, “Imidazopyrazinones as PDE1 inhibitors” (H. Lundbeck A/S, priority 2015, dated 2020)
